Laboratory results published in article PMC11479992, “Branched oncolytic peptides target HSPGs, inhibit metastasis, and trigger the release of molecular determinants of immunogenic cell death in pancreatic cancer” (Frontiers in Molecular Biosciences, 2024).
Counter-ions that a name gives are not always drawn. Bridges are numbered along the chain shown (N, C = ends). Roman numbers before positions name the chains, in order. Where no end group is shown, it is not given here.

Experiments:
[1] = test system: IFN-β secretion by PANC-1 cells; assay: IFN-β release ELISA; type: cell-based, human; details: 300 to 2 μM, 24 h, n = 3
Description: PANC-1 cells were seeded 5 × 10^4 cells/well in a 96-well plate and incubated overnight at 37°C in a 5% CO2 atmosphere. Cells were then treated with BOP7, BOP9, daunorubicin hydrochloride (Sigma Aldrich) and irinotecan hydrochloride (Sigma Aldrich) at different concentrations (from 300 to 2 μM) and left for 24 h at 37°C. At the same time, a DuoSet ELISA plate (R&D Systems Inc., Minneapolis, MN, United States) for the detection of IFN-β was prepared following the manufacturer’s instructions. The plate was sensitized with 100 μL/well of capture antibody for 24 h. PANC-1 supernatants were collected and centrifuged for 5 min at 1,200 rpm, added to the DuoSet plate at 100 μL/well and incubated for 2 h at room temperature. The detection antibody conjugated with streptavidin-peroxidase was then added. After adding the substrate solution, the plate was read at 450 nm using a microplate spectrophotometer (Multiskan, Thermo Scientific). Data was analysed using GraphPad Prism version 9.5.0 software.

[2] = test system: HMGB1 release by PANC-1 cells; assay: HMGB1 release ELISA; type: cell-based, human; details: 300 to 2 μM, 24 h, ELISA of supernatants, n = 3
Description: PANC-1 cells were seeded 5 × 10^4 cells/well in a standard 96-well plate and incubated overnight at 37°C in a 5% CO2 atmosphere. Then they were treated with BOP7, BOP9, daunorubicin hydrochloride (Sigma Aldrich) and irinotecan hydrochloride (Sigma Aldrich) at different concentrations (from 300 to 2 μM in 200 μL) and left for 24 h at 37°C. The following day, release of HMGB1 in the culture medium was assessed with an HMGB1 ELISA kit (IBL International, Hamburg, Germany) in the PANC-1 supernatants, according to the manufacturer’s instructions. Optical density was measured at 450 nm with a microplate spectrophotometer (Multiskan, Thermo Scientific). Data was analysed using GraphPad Prism version 9.5.0 software.

[3] = test system: ATP release by PANC-1 cells; assay: Extracellular ATP bioluminescence assay; type: cell-based, human; details: 50 μM
Description: PANC-1 cells were seeded (10 × 10^3 cells/well) in an opaque-walled 96-well plate and incubated overnight at 37°C in a 5% CO2 atmosphere. The following day, each well was treated with 150 μL BOP7, BOP9, daunorubicin hydrochloride (Sigma Aldrich) or irinotecan hydrochloride (cod. PHR2717, Sigma Aldrich) at different concentrations (from 50 to 2 μM). At the same time, each well was incubated with 50 μL RealTime-Glo Extracellular ATP Reagent Substrate (Promega). The plate was incubated at 37° and bioluminescence was measured at 560 nm at different time intervals with a VICTOR NIVO 5S luminometer (Perkin Elmer, Waltham, MA, United States). Data was analysed using GraphPad Prism version 9.5.0 software.

[4] = test system: CHO-K1 cells; type: cell-based, chinese hamster; details: 24 h
Description: PANC-1, PANC-1-luc2, Mia PaCa-2 or CHO-K1 cells were seeded 5 × 10^4 cells/well in a standard 96-well plate and incubated overnight at 37°C, 5% CO2 atmosphere. […] PANC-1 and Mia PacCa-2 were also tested with linear peptides L7 and L9 at concentrations ranging from 781 to 0.5 μM under the same conditions. Growth inhibition was assessed with a MMT assay (3-(4,5-dimethylthiazol-2-yl)-2,5-diphenyltetrazolium bromide) (Sigma Aldrich). Optical density was measured at 595 and 650 nm with a microplate spectrophotometer (Multiskan, Thermo Scientific). Experiments were repeated twice in quintuplicate. Cell viability was measured by comparing values of treated and untreated cells. IC50 values were calculated by non-linear regression analysis using GraphPad Prism version 9.5.0 software.

[5] = test system: Mia PaCa-2 cells; type: cell-based, human; details: 24 h
Description: (§1) PANC-1, PANC-1-luc2, Mia PaCa-2 or CHO-K1 cells were seeded 5 × 10^4 cells/well in a standard 96-well plate and incubated overnight at 37°C, 5% CO2 atmosphere. Each well was treated with 200 μL BOP7 or BOP9 at different concentrations (from 100 to 0.08 μM) and incubated for 24 h. PANC-1 and Mia PacCa-2 were also tested with linear peptides L7 and L9 at concentrations ranging from 781 to 0.5 μM under the same conditions. Growth inhibition was assessed with a MMT assay (3-(4,5-dimethylthiazol-2-yl)-2,5-diphenyltetrazolium bromide) (Sigma Aldrich). Optical density was measured at 595 and 650 nm with a microplate spectrophotometer (Multiskan, Thermo Scientific). Experiments were repeated twice in quintuplicate. Cell viability was measured by comparing values of treated and untreated cells. IC50 values were calculated by non-linear regression analysis using GraphPad Prism version 9.5.0 software.

[6] = test system: PANC-1 cells; type: cell-based, human; details: 24 h
Description: as §1

Compound	IFN-β release [1]	HMGB1 release [2]	time after which ATP release returned to baseline [3] [h]	time of peak of ATP release [3] [h]	ATP release ([3]; bioluminescence over time)	IC50 [4] [µM]	IC50 [5] [µM]	IC50 [6] [µM]
COc1cccc2c1C(=O)c1c(O)c3c(c(O)c1C2=O)C[C@@](O)(C(C)=O)C[C@@H]3O[C@H]1C[C@H](N)[C@H](O)[C@H](C)O1 [daunorubicin, daunorubicin hydrochloride]	did not result in a statistically significant release	most effective inducer even at the lowest concentrations	6	3	most effective agent			
I: LLKKKFKKLQKK-NH2 / II: LLKKKFKKLQK / III: LLKKKFKKLQ / IV: LLKKKFKKLQ (amide I:11-IV:C, I:12-II:C, II:11-III:C) [BOP7]						5000	27.3	1.67
I: KKKLKFKKLQKK-NH2 / II: KKKLKFKKLQK / III: KKKLKFKKLQ / IV: KKKLKFKKLQ (amide I:11-IV:C, I:12-II:C, II:11-III:C) [BOP9]						16000	17.8	8.3
CCc1c2c(nc3ccc(OC(=O)N4CCC(N5CCCCC5)CC4)cc13)-c1cc3c(c(=O)n1C2)COC(=O)[C@]3(O)CC [irinotecan, irinotecan hydrochloride]	did not result in a statistically significant release							
